Data as given in patent US9969758B2, “Antimicrobial compounds” (BIOMERIEUX, priority 2014, dated 2018).
≈ marks a conversion by molar mass, not a printed value.

Columns and labels:
Experiment in all cases: MIC by agar dilution
E. aerogenes (n=1) = format: cell-based, Enterobacter aerogenes
From the text: (§1) Bacterial isolates. […] These included Citrobacter freundii (n=5), other species of Citrobacter (n=4), Enterobacter aerogenes (n=1), Enterobacter cloacae (n=27), Escherichia coli (n=53), Klebsiella oxytoca (n=5), Klebsiella pneumoniae (n=87), Kluyvera spp (n=1), Proteus mirabilis (n=8), Providencia rettgeri (n=2), Salmonella spp (n=3), and Serratia marcescens (n=1). Among these 197 isolates, there were 128 (65%) carbapenemase producers, including; 87 with NDM-1, 9 with IMP, 11 with KPC, 14 with OXA-48 and 7 with VIM. The majority of the carbapenemase producers jointly produced broad-spectrum β-lactamases (BSBL) or cephalosporinases (AmpC β-lactamases), but the latter are not documented for the sake of clarity.
(§2) Determining the minimum inhibitory concentrations (MIC). All the MICs were determined using an agar dilution method. This required use of a medium without a defined antagonist (peptone-free), prepared as described previously with the inclusion of 2% horse blood lysed with saponin, 25.0 μg/mL of NAD and 25.0 μg/mL of hemin [17]. […] The MICs of fosfomycin were determined by the same method, except that the IsoSensitest medium (Oxoid, Basingstoke, United Kingdom) was used, plus 25.0 μg/mL of glucose-6-phosphate (Sigma, Poole, United Kingdom) and an extended range of fosfomycin concentrations. […]

Citrobacter (n=9) = format: cell-based
In short: (§3)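 Agar dilution on peptone-free medium with 2% lysed horse blood, NAD and hemin (25.0 μg/mL each), compounds 0.0031 to 8.0 μg/mL; inoculum 10 000 CFU/spot, 22 h at 37° C. Fosfomycin tested in IsoSensitest medium plus 25.0 μg/mL glucose-6-phosphate; at least two replicates.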

[1] = test system: Enterobacteriaceae with a broad-spectrum β-lactamase; format: cell-based
In short: as §3

[2] = test system: carbapenemase-producing Enterobacteriaceae; format: cell-based
In short: as §3

Enterobacteriaceae (197) = format: cell-based; conditions: Enterobacteriaceae (197)
In short: as §3

[3] = test system: methicillin-resistant Staphylococcus aureus; format: cell-based
In short: (§4)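 Agar dilution in peptone-free medium with lysed horse blood, NAD and hemin; compounds at 0.0031–8.0 μg/mL (0.016–32 μg/mL for Gram-positives). Inoculum 10 000 CFU/spot, 22 h at 37 °C; fosfomycin tested in IsoSensitest plus glucose-6-phosphate. Clinical and control isolates, at least two independent replicates.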

[4] = test system: methicillin-sensitive Staphylococcus aureus; format: cell-based; conditions: MSSA (13)
In short: as §4

All Enterococci (50) = format: cell-based; conditions: All Enterococci (50)
In short: as §4

[5] = test system: glycopeptide-resistant enterococci; format: cell-based
In short: as §4

Kluyvera sp. (n=1) = format: cell-based, Kluyvera spp
From the text: as §1, §2

E. faecium (34) = format: cell-based, Enterococcus faecium
In short: as §4

AmpC (22) = format: cell-based, Enterobacteriaceae
In short: as §3

S. marcescens (n=1) = format: cell-based, Serratia marcescens
From the text: as §1, §2

K. oxytoca = format: cell-based, Klebsiella oxytoca; conditions: Klebsiella oxytoca; one of the five isolates of K. oxytoca
From the text: as §1, §2

E. coli (53) = format: cell-based, Escherichia coli
In short: as §3

E. faecalis (11) = format: cell-based, Enterococcus faecalis; conditions: Enterococcus faecalis, E. faecalis (11)
In short: as §4

All S. aureus (50) = format: cell-based, Staphylococcus aureus; conditions: All S. aureus (50)
In short: as §4

K. pneumoniae (87) = format: cell-based, Klebsiella pneumoniae; conditions: Klebsiella pneumoniae
In short: as §3

Salmonella isolates = format: cell-based, Salmonella spp; conditions: three Salmonella isolates; read-out: MICs
From the text: as §1, §2

[6] = read-out: Modal MIC (most frequent MIC)
[7] = Staphylococcus aureus, read-out: MIC50
[8] = Staphylococcus aureus, read-out: MIC90
[9] = Staphylococcus aureus, read-out: Modal MIC (most frequent MIC)

## C[C@H](N)C(=O)N[C@@H](C)P(=O)(O)O [Alafosfalin, L-alanyl-L-1-aminoethylphosphonic acid]
E. aerogenes (n=1)
  concentration to which all the isolates were sensitive: ≤ 4 µg/mL
Citrobacter (n=9)
  concentration to which all the isolates were sensitive: ≤ 4 µg/mL
[1]
  MIC50: 2 µg/mL (≈ 10.2 µM)
  MIC90: > 8 µg/mL
[1]; [6]
  MIC: 2 µg/mL (≈ 10.2 µM)
[2]
  MIC50: 1 µg/mL (≈ 5.1 µM)
  MIC90: 4 µg/mL (≈ 20.4 µM)
[2]; [6]
  MIC: 2 µg/mL (≈ 10.2 µM)
Enterobacteriaceae (197); read-out: MIC50
  MIC50: 2 µg/mL (≈ 10.2 µM)
Enterobacteriaceae (197); read-out: MIC90
  MIC90: > 8 µg/mL
Enterobacteriaceae (197); [6]
  MIC: 2 µg/mL (≈ 10.2 µM)
[3]; MRSA (37)
  MIC90: 8 µg/mL (≈ 40.8 µM)
  MIC Range: 0.125 to 16 µg/mL
[3]; Staphylococcus aureus, MRSA
  MIC50: 4 µg/mL (≈ 20.4 µM)
  MIC90: 8 µg/mL (≈ 40.8 µM)
[3]; Staphylococcus aureus, MRSA, read-out: Modal MIC (most frequent MIC)
  MIC: 4 µg/mL (≈ 20.4 µM)
[4]
  MIC Range: 0.25 to 16 µg/mL
[4]; [7]
  MIC50: 4 µg/mL (≈ 20.4 µM)
[4]; [8]
  MIC90: 8 µg/mL (≈ 40.8 µM)
[4]; [9]
  MIC: 4 µg/mL (≈ 20.4 µM)
All Enterococci (50); read-out: MIC50
  MIC50: 16 µg/mL (≈ 81.6 µM)
All Enterococci (50); read-out: MIC90
  MIC90: > 32 µg/mL
All Enterococci (50); [6]
  MIC: 8 µg/mL (≈ 40.8 µM)
[5]
  MIC50: 16 µg/mL (≈ 81.6 µM)
  MIC90: > 32 µg/mL
[5]; [6]
  MIC: 16 µg/mL (≈ 81.6 µM)
Kluyvera sp. (n=1)
  concentration to which all the isolates were sensitive: ≤ 4 µg/mL
E. faecium (34); 34 E. faecium isolates (including 31 vancomycin-resistant)
  concentration by which all isolates were inhibited: 32 µg/mL
E. faecium (34); E. faecium (34)
  MIC Range: 4 to 32 µg/mL
E. faecium (34); Enterococcus faecium, E. faecium (34), read-out: MIC50
  MIC50: 16 µg/mL (≈ 81.6 µM)
E. faecium (34); Enterococcus faecium, E. faecium (34), read-out: MIC90
  MIC90: 16 µg/mL (≈ 81.6 µM)
E. faecium (34); Enterococcus faecium, E. faecium (34), read-out: Modal MIC (most frequent MIC)
  MIC: 16 µg/mL (≈ 81.6 µM)
AmpC (22)
  MIC50: 4 µg/mL (≈ 20.4 µM)
  MIC90: > 8 µg/mL
AmpC (22); [6]
  MIC: > 8 µg/mL
S. marcescens (n=1)
  concentration to which all the isolates were sensitive: ≤ 4 µg/mL
K. oxytoca
  MIC: > 8 µg/mL
E. coli (53); 53 isolates of E. coli
  concentration by which growth of all the isolates was inhibited: 2 µg/mL
E. coli (53); E. coli
  activity relative to that of fosfomycin: approximately four
E. coli (53); E. coli (53)
  MIC Range: ≤0.031-2 ^ μg/mL
E. coli (53); Escherichia coli, E. coli (53), read-out: MIC50
  MIC50: 0.125 µg/mL (≈ 0.637 µM)
E. coli (53); Escherichia coli, E. coli (53), read-out: MIC90
  MIC90: 0.25 µg/mL (≈ 1.27 µM)
E. coli (53); Escherichia coli, E. coli (53), read-out: Modal MIC (most frequent MIC)
  MIC: 0.063 µg/mL (≈ 0.321 µM)
E. faecalis (11); read-out: MIC50
  MIC50: 8 µg/mL (≈ 40.8 µM)
E. faecalis (11); read-out: MIC90
  MIC90: 32 µg/mL (≈ 163 µM)
E. faecalis (11); [6]
  MIC: 8 µg/mL (≈ 40.8 µM)
All S. aureus (50)
  MIC Range: 0.125 to 16 µg/mL
All S. aureus (50); [7]
  MIC50: 4 µg/mL (≈ 20.4 µM)
All S. aureus (50); [8]
  MIC90: 8 µg/mL (≈ 40.8 µM)
All S. aureus (50); [9]
  MIC: 4 µg/mL (≈ 20.4 µM)
K. pneumoniae (87); K. pneumoniae (87), read-out: MIC50
  MIC50: 2 µg/mL (≈ 10.2 µM)
K. pneumoniae (87); K. pneumoniae (87), read-out: MIC90
  MIC90: > 8 µg/mL
K. pneumoniae (87); K. pneumoniae (87), read-out: Modal MIC (most frequent MIC)
  MIC: 2 µg/mL (≈ 10.2 µM)
K. pneumoniae (87); K. pneumoniae isolates, at 8 μg/mL, read-out: isolates inhibited
  percent of isolates inhibited at 8 µg/mL: 87%
Salmonella isolates
  MIC: ≥ 8 µg/mL
